Ends that are not written are not given here. * marks the point of attachment. A∗ = N-allylalanine, C=CCN[C@@H](C)C(=O)*; code X = not defined here
What was measured:
[1] = test system: IMR90 (human normal fibroblasts); assay: Cell proliferation (MTT); type: cell-based
Protocol: (§1) Cell proliferation was assessed using the MTT reagent (Roche Molecular Biochemicals, Nutley, N.J.) to detect metabolic active cells. Absorbance was measured at 570 nm in the Spectra Max 190 ELISA reader (Molecular Devices, Sunnyvale, Calif.) after overnight incubation. For clonogenic survival, 200 cells per well were plated in complete growth media and allowed to grow until visible colonies were formed (14 days). Cell colonies were fixed with cold methanol, stained with 0.25% crystal violet in 25% methanol, washed, and air dried. For apoptosis, cells were harvested, washed with cold PBS, and co-stained with Annexin V and propidium iodide according to the manufacturer's protocol (ApoAlert Annexin V-FITC Apoptosis Kit; Clontech). Apoptotic cells were analyzed using BD FACS Calibur (BD Biosciences Corporation, Franklin Lakes, N.J.) at The Ohio State University Comprehensive Cancer Center Analytical Cytometry Core.

[2] = test system: p300, p53, p21, miR-34a, miR-200c; assay: Quantitative real-time PCR of p300, p53, p21, miR-34a and miR-200c expression; type: cell-based, human
Protocol: Cells were extracted for total RNA using the TRIzol® reagent (Invitrogen) or TaqMan PreAmp Cells-to-CT kit (Applied Biosystems). Expression of p300, p53, p21, miR-34a and miR-200c were determined using the Applied Biosystems 7900HT Fast Real-Time PCR System with validated TaqMan gene expression assays (Applied Biosystems). p53, p300, and p21 expression were normalized to GADPH and miR-34a and miR-200c expression were normalized to RNU44 using the ΔΔCt method.

p53 [3] = assay: p53 transcriptional activity (Cignal p53 Firefly/Renilla luciferase reporter); type: cell-based, human
Protocol: Cells were transfected with 100 ng of Cignal p53 reporter (SABiosciences, Valencia, Calif.) using Lipofectamine 2000. Cignal p53 reporter contains tandem repeats of the p53 consensus transcriptional response element. After 48 hours, cells were washed with cold PBS, lysed in passive lysis buffer (Promega), and measured for Firefly/Renilla dual luciferase activities in a luminometer using the Dual-Light System (Applied Biosystems, Foster City, Calif.). […] to control for transfection efficiency. A modification to the protocol was used for compound treatment. UMSCC47 cells were transfected with 100 ng of Cignal p53 reporter. After 24 hours, cells were treated with vehicle, CH1iB (10 μM), cis-platinum (10 μM), or combination of CH1iB (10 μM) and cis-platinum (10 μM) and measured for Firefly/Renilla dual luciferase activities 24 hours post-treatment.

CH1 domain of p300 = CH1 domain of p300 (Homo sapiens, UniProt Q09472); details: competes with endogenous HIF-1α for p300; Henchey et al. 2010; cited from earlier work
p53 [4] = assay: Western blot of total and acetylated[K382] p53 levels; type: cell-based, human
Protocol: Whole cell lysates were mixed with Laemmli loading buffer, boiled, separated by SDS-PAGE, and transferred to a nitrocellulose membrane. Subsequently, immunoblot analyses were performed using antibodies specific to V5 (Invitrogen), p53 (sc-126, Santa Cruz Biotechnology, Santa Cruz, Calif.), or acetylated[[…]]-p53 (2525, Cell Signaling Technology). The signal was developed using the SuperSignal Western Blotting Kit (Pierce, Rockford, Ill.).

UMSCC47 cells [5] = assay: Cell proliferation (MTT); type: cell-based, human
Protocol: as §1

UMSCC74A cells [6] = assay: Cell proliferation (MTT); type: cell-based, human
Protocol: as §1

UMSCC47 cells [7] = assay: Tumorsphere formation; type: cell-based, human; details: overexpression of CH1, UMSCC47 cells
Protocol: Cells were harvested and seeded in a serum-free defined medium consisting of KSF medium supplemented with epidermal growth factor, basic fibroblast growth factor, insulin, and hydrocortisone in low-attachment plates (Corning Incorporated, Corning, N.Y.) for tumorspheres. Tumorsphere formation efficiency was calculated as the number of tumorspheres ([…] in diameter) formed in 7 days divided by the original number of cells seeded. Tumorsphere diameter was measured using NIS-Elements software.

HPV16 E6-p300 = target: T1, HPV16 E6-p300 (Homo sapiens, UniProt Q09472); assay: Immunoprecipitation of HPV16 E6-p300 association; type: cell-based; details: exogenous CH1; UMSCC47 and UPCI:SCC090 cells
T1 construct: Cell lysates were extracted, immunoprecipitated with anti-p300 antibody, and immunoblotted with anti-E6 antibody; endogenous in cells; host or cells: UMSCC47 (HPV16-positive HNSCC)
Protocol: Cells were lysed with NP buffer [50 mM Tris (pH 8.0), 150 mM NaCl, 0.5% deoxycholate, 0.1% SDS, and 1.0% NP-40] containing 1× Protease Inhibitor Cocktail (Roche, Switzerland) at 4° C. with gentle rocking for 15 min. The supernatant was pre-cleared to block nonspecific binding with 50 μL protein A/G Agarose beads (Pierce Biotechnology) that had been pre-washed with NP buffer before use. Equal amounts of anti-E6 antibody (Abcam), anti-p300 antibody (Millipore), or IgG antibody (Cell Signaling) were added to the respective samples. After 4 hours incubation at 4° C., 50 μL pre-washed protein A/G-agarose beads were added to each tube and immunoprecipitation was performed by rocking overnight at 4° C. The immunoprecipitated complexes were washed with NP buffer and then eluted using 2×SDS sample buffer. Eluted sample and 10% of input were resolved by SDS-PAGE for Western blot analysis with anti-E6, anti-p300, or anti-V5 antibodies.

UMSCC47 cells [8] = assay: Apoptosis (Annexin V FACS); type: cell-based, human; details: CH1 overexpression
Protocol: as §1

UPCI:SCC090 cells [9] = assay: Apoptosis (Annexin V FACS); type: cell-based, human; details: CH1 overexpression
Protocol: as §1

UMSCC74A cells [10] = assay: Apoptosis (Annexin V FACS); type: cell-based, human; details: overexpression of CH1, UMSCC74A cells
Protocol: as §1

UMSCC47 cells [11] = assay: Tumor incidence and growth in athymic nude mice; type: in vivo
Protocol: After 3 weeks, tumors were measured once a week using a digital caliper and tumor volumes were calculated using the formula d1×d2×d3×0.5236, where “d” represents the three orthogonal diameters. Tumor growth and incidence were monitored for 49 days following tumor cell implantation.

UMSCC47 cells [12] = assay: ALDH (ALDEFLUOR) and CD44 (FACS) cancer initiating cell markers; type: cell-based, human
Protocol: Cells were assessed for ALDH activity using the ALDEFLUOR kit according to the manufacturer's protocol (Stem Cell Technologies, British Columbia, Canada). Cells were suspended in ALDEFLUOR assay buffer containing ALDH substrate (bidipy-aminoacetaldehyde, 1 μM per 1×10^6 cells) and incubated for 40 minutes at 37° C. For each experiment, a sample of cells was incubated with 50 mM of diethylaminobenzaldehyde (DEAB), a specific ALDH inhibitor, to serve as the negative control. For CD44 expression, cells were harvested and resuspened in incubation buffer with PE-CD44 antibody (Abcam) or mouse PE-IgG (Abcam) for 50 minutes on ice. Suspensions were centrifuged at 300×g for 5 minutes at 4° C. and resuspend in 0.5 mL of 1% paraformaldehyde solution for analysis. Fluorescence activated cell sorting (FACS) analyses were performed using BD FACS Calibur at The Ohio State University Comprehensive Cancer Center Analytical Cytometry Core.

MDM2-p300 = target: T2, MDM2-p300 (Homo sapiens, UniProt Q09472); assay: Immunoprecipitation of MDM2-p300 association; type: cell-based; details: introduction of CH1, UMSCC74A cells
T2 construct: Cell lysates were extracted, immunoprecipitated with anti-p300 antibody, and immunoblotted with anti-MDM2; endogenous in cells; host or cells: UMSCC74A (HPV-negative, p53 wildtype HNSCC)

UMSCC47 cells [13] = assay: Clonogenic survival (crystal violet); type: cell-based, human; details: UMSCC47/CH1 cells
Protocol: as §1

UPCI:SCC090 cells [14] = assay: Clonogenic survival (crystal violet); type: cell-based, human; details: UPCI:SCC090/CH1 cells
Protocol: as §1

UMSCC74A cells [15] = assay: Clonogenic survival (crystal violet); type: cell-based, human; details: overexpression of CH1, UMSCC74A cells
Protocol: as §1

UPCI:SCC090 cells [16] = assay: Cell proliferation (MTT); type: cell-based, human; details: UPCI:SCC090/CH1 cells
Protocol: as §1

[17] = CH1 overexpression, UMSCC47 cells
[18] = CH1 overexpressing UMSCC47 and UPCI:SCC090 cells

CH1 domain of p300, sequence (Q09472 whole entry, the tested form may be a part): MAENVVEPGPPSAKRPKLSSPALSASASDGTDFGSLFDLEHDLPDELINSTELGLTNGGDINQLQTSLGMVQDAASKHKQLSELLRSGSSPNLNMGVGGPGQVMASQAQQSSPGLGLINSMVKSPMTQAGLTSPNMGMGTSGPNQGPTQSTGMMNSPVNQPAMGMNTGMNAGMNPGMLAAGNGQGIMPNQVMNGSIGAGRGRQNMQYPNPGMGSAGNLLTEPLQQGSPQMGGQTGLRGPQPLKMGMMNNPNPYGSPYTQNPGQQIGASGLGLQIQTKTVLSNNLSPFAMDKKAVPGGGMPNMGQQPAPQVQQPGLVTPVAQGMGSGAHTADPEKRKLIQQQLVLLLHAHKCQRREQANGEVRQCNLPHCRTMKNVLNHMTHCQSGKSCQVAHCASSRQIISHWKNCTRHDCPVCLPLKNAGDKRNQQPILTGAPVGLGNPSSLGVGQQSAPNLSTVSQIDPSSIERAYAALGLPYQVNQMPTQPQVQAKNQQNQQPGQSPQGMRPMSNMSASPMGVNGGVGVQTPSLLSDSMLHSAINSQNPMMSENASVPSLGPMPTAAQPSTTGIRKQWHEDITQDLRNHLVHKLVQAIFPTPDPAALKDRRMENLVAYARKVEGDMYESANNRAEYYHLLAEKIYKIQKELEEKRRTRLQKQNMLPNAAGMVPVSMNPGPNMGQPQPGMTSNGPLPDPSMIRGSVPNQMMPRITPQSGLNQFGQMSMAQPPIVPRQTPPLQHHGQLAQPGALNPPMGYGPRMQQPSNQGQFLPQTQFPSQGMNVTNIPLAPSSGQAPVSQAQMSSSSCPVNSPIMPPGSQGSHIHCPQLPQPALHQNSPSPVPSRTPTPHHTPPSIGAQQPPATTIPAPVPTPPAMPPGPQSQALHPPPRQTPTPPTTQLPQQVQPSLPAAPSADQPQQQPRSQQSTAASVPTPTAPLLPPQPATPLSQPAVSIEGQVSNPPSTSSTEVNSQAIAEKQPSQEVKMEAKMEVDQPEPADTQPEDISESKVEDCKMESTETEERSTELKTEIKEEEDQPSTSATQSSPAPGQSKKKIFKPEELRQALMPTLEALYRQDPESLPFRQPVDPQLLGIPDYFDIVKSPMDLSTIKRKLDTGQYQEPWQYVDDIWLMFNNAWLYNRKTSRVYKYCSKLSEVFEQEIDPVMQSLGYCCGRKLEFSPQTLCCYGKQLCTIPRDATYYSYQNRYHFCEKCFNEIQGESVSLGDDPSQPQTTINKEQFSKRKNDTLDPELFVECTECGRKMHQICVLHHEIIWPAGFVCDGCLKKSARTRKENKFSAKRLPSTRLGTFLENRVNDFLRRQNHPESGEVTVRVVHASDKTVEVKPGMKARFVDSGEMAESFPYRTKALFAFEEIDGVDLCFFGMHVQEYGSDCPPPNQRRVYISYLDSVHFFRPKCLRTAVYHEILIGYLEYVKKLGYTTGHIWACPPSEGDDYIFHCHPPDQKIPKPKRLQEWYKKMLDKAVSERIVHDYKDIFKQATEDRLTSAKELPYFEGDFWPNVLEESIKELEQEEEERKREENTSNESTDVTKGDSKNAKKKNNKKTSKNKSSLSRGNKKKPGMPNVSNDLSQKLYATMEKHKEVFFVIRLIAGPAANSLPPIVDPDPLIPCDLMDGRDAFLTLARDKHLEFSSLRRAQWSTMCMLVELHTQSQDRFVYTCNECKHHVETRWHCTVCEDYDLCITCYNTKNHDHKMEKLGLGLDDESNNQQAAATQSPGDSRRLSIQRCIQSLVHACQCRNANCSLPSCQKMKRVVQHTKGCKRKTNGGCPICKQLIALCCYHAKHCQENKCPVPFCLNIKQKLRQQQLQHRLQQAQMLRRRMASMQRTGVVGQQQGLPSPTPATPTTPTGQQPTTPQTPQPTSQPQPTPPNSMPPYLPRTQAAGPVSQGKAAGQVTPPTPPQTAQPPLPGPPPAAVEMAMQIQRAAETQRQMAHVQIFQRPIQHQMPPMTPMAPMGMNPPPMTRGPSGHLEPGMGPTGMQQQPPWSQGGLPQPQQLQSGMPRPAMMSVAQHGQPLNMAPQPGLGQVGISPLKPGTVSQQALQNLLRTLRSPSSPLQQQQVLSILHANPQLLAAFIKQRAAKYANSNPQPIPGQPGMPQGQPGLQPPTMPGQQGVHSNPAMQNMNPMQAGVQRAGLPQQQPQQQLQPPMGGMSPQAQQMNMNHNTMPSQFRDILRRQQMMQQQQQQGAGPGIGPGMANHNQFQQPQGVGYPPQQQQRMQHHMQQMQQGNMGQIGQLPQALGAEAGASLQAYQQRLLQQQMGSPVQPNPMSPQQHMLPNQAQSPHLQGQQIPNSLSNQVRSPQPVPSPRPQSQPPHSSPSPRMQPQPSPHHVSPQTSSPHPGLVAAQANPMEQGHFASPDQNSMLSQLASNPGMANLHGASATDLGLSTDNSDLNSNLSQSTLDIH
T1 sequence (Q09472 whole entry): as the sequence (Q09472 whole entry, the tested form may be a part) above
T2 sequence (Q09472 whole entry): as the sequence (Q09472 whole entry, the tested form may be a part) above

With “XTAA*DCEYNAR ({code X-Thr-Ala-A∗}-DCEYNAR; staple (positions not given here); reading uncertain; also: HBS: 4-pentenoic acid, N-allylalanine, printed as XTAA*DCEYNAR) [CH1iA, hydrogen bond surrogate stabilized α-helical mimic of HIF-1α targeting site A of p300 CH1; X = 4-pentenoic acid, A* = N-allylalanine, reference compound]” the “effect on efficacy of cis-platinum on proliferation” value ([1]; IMR90 fibroblasts, 10 μM with cis-platinum 10 μM) was “did not augment”, the “cell proliferation, single-agent” value ([1]; human normal IMR90 fibroblasts, 10 μM) was “no effect” and the “expression of p300, p53, and p53-regulated genes” value ([2]; UMSCC74A, 10 μM, 24 hours) was “unchanged”. For the same substance, the “p53 activity, increase” value (p53 [3]; HPV-positive UMSCC47 cells, 10 μM, 24 hours, vs vehicle) was “no effect”, the p53 activity (p53 [3]; UMSCC74A (HPV-negative, p53 wildtype), 10 μM, 24 hours) was “did not modulate” and the “HIF-1α-mediated transcription of vascular endothelial growth factor” value (CH1 domain of p300) was “reduction”. The “acetylated p53 levels” value (p53 [4]; UMSCC47 cells, 10 μM, 24 hours) was “no effect”, the p53 accumulation (p53 [4]; UMSCC47 cells, 10 μM, 24 hours) was “no effect” and the p53 levels (p53 [4]; UMSCC74A, 10 μM, 24 hours) was “did not modulate”. The “cell proliferation, single-agent” value (UMSCC47 cells [5]; UMSCC47 cells, 10 μM, 24-72 hours) was “inactive”, the “cell proliferation, single-agent” value (UMSCC74A cells [6]; HPV-negative UMSCC74A cells, 10 μM) was “no effect” and the “effect on efficacy of cis-platinum on proliferation” value (UMSCC74A cells [6]; UMSCC74A cells, 10 μM with cis-platinum 10 μM) was “did not augment”.

In the case of “CH1: CH1 domain of p300 ectopically expressed from pcDNA3.1/CH1 in stably transfected HNSCC cells”, the “miR-34a expression, increased by” value ([2]; UMSCC47/CH1 cells) is reported as 323%, the “miR-200c expression, increased by” value ([2]; UMSCC47/CH1 cells) is reported as 80% and the “p21 expression, increased by” value ([2]; UMSCC47/CH1 cells) is reported as 114%. For the same substance, the “miR-34a expression, increased by” value ([2]; UPCI:SCC090/CH1 cells) was 134%, the “miR-200c expression, increased by” value ([2]; UPCI:SCC090/CH1 cells) was 49% and the “p21 expression, increased by” value ([2]; UPCI:SCC090/CH1 cells) was 39%. For the same substance, the “p53 and p300 expression” value ([2]; overexpression of CH1, UMSCC47 and UPCI:SCC090) was “no effect”, the “tumorsphere diameter, reduced by” value (UMSCC47 cells [7]) was 25% and the “tumorsphere formation efficiency, inhibited by” value (UMSCC47 cells [7]) was 42%. For the same substance, the “association between E6 and p300” value (HPV16 E6-p300) was “reduce the association between E6 and p300”, the “p53 transcription activity, elevated by” value (p53 [3]; UMSCC47/CH1 cells vs empty vector) was 85% and the “p53 transcription activity, elevated by” value (p53 [3]; UMSCC74A/CH1 vs UMSCC74A/empty cells) was 68%. The “p53 transcription activity, elevated by” value (p53 [3]; UPCI:SCC090/CH1 cells vs empty vector) was 50%, the “apoptosis, increased by” value (UMSCC47 cells [8]) was 60% and the “apoptosis, increased by” value (UPCI:SCC090 cells [9]) was 27%. The “apoptosis, increased by” value (UMSCC74A cells [10]) was 95%, the tumor incidence (UMSCC47 cells [11]; 3×10^4 UMSCC47/CH1 cells implanted (UMSCC47/empty 50%)) was 0% and the mean tumor volume (UMSCC47 cells [11]; 3×10^5 UMSCC47/CH1 cells implanted (UMSCC47/empty 142 mm^3)) was 67 mm^3. The “tumor incidence vs UMSCC47/empty” value (UMSCC47 cells [11]; 3×10^5 cells implanted in flanks, 49 days) was “the same”, the “ALDH^high population, reduced by” value (UMSCC47 cells [12]; [17]) was 46% and the “CD44^high population, reduced by” value (UMSCC47 cells [12]; [17]) was 31%. For the same substance, the “CD44 levels (FACS), reduced by” value (UMSCC47 cells [12]; UMSCC47/CH1 vs UMSCC47/empty cells) was 33%, the “interaction between p300 and MDM2” value (MDM2-p300) was “disrupted” and the “clonogenic survival, reduced by” value (UMSCC47 cells [13]) was 55%. The “clonogenic survival, reduced by” value (UPCI:SCC090 cells [14]) was 58%, the “clonogenic survival, inhibited by” value (UMSCC74A cells [15]) was 70% and the “acetylated p53” value (p53 [4]; [18]) was “increase”. The “total p53” value (p53 [4]; [18]) was “accumulation”, the “total and acetylated p53” value (p53 [4]; ectopic expression of CH1, HPV-negative UMSCC74A cells) was “increased” and the “cell proliferation, reduced by” value (UMSCC47 cells [5]; UMSCC47/CH1 cells) was 20%. For the same substance, the “cell proliferation, reduced by” value (UPCI:SCC090 cells [16]) was 11% and the “cell proliferation, inhibited by” value (UMSCC74A cells [6]; overexpression of CH1, UMSCC74A cells) was 48%.

— patent US20140205681A1, “HYDROGEN-BOND SURROGATE PEPTIDES AND PEPTIDOMIMETICS FOR p53 REACTIVATION” (New York University, priority 2013, published 2014)
